# In PMC12216609, “Inhibitors of eIF1A-ribosome interaction unveil uORF-dependent regulation of translation initiation and antitumor and antiviral effects” (The EMBO Journal, 2025):
# Values joined by “and” are separate entries in the source; they are usually repeats but may differ in a detail not shown here. Identical values can stand only once. Like-named read-outs stand apart in the source and are kept apart here.
# How the values were obtained:
# [1] = tested on: cap-proximal AUG GFP reporter in HEK293T cells; type: cell-based; settings: GFP WB densitometry; 20 µM overnight; dmso 0.965946;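 note: ratio of upstream to downstream AUG initiation products on GFP Western blot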
# eIF1A-RPS10 interaction = biological target: T1, eIF1A-RPS10 interaction (Homo sapiens, UniProt P46783+P47813); experiment: Split-Renilla luciferase eIF1A-RPS10 interaction screen, dose-response; type: biochemical; settings: summary table; read-out: IC50 concentration (µM), IC50 screen
# T1 construct: made in house; host or cells: E. coli BL21 (PRSFduet); unpurified lysate supernatant
# Method in brief: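 Recombinant split-luciferase fusions were produced bacterially, lysed by sonication in TKE buffer and the cleared supernatants tested for Renilla activity. Compounds, held as 10 mM DMSO stocks, were then assayed for interference with the reconstituted signal, with unfused Renilla halves run as controls.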
# eIF1A = biological target: T2, eIF1A (Homo sapiens, UniProt P47813); type: binding; settings: for fluorescence ratio, eIF1A: background-corrected, relative to DMSO or lowest 1Ai concentration, replicate columns
# T2 construct: His-bdSUMO (cleaved yes); made in house; host or cells: E. coli BL-21
# RPS10 = biological target: T3, RPS10 (Homo sapiens, UniProt P46783); type: binding
# T3 construct: made in house; host or cells: E. coli BL-21
# NSP1 = NSP1 (Severe acute respiratory syndrome coronavirus 2, UniProt P0DTD1)
# [2] = summary table, fluorescence binding assay, read-out: IC50 concentration (µM), WT eIF1A
# T2 sequence (P47813 whole entry): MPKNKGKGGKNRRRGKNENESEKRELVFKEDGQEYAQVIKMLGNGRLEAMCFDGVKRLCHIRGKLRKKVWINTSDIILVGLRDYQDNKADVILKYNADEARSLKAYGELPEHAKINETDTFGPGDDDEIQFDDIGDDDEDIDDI
# T1 sequence (P47813 whole entry, one chain of several): as the sequence (P47813 whole entry) above
Compound,"US/DS ratio, average [1]",IC50 (eIF1A-RPS10 interaction),"fluorescence ratio, eIF1A (eIF1A; 1Ai conc. 0.25 uM)","fluorescence ratio, eIF1A (eIF1A; 1Ai conc. 0.5 uM)","fluorescence ratio, eIF1A (eIF1A; 1Ai conc. 1 uM)","fluorescence ratio, eIF1A (eIF1A; 1Ai conc. 2 uM)","fluorescence ratio, eIF1A (eIF1A; 1Ai conc. 4 uM)","fluorescence ratio, eIF1A (eIF1A; 1Ai conc. 8 uM)","fluorescence ratio, eIF1A (eIF1A; 1Ai conc. 16 uM)","fluorescence ratio, eIF1A (eIF1A; 1Ai conc. 32 uM)","fluorescence ratio, eIF1A (eIF1A; 1Ai conc. 64 uM)","fluorescence ratio, eIF1A (eIF1A; 1Ai conc. 256 uM)",IC50 (eIF1A; [2]),RPS10 fluorescence ratio to control (RPS10; 1Ai conc. 0.25 uM),RPS10 fluorescence ratio to control (RPS10; 1Ai conc. 0.5 uM),RPS10 fluorescence ratio to control (RPS10; 1Ai conc. 1 uM),RPS10 fluorescence ratio to control (RPS10; 1Ai conc. 2 uM),RPS10 fluorescence ratio to control (RPS10; 1Ai conc. 4 uM),RPS10 fluorescence ratio to control (RPS10; 1Ai conc. 8 uM),RPS10 fluorescence ratio to control (RPS10; 1Ai conc. 16 uM),other results
Cc1ccc(C(=O)c2cc(O)c(O)c([N+](=O)[O-])c2)cc1 [1Ai-5576],0.8188,24 µM,0.7537 and 0.6505,0.6672 and 0.6249,0.6232 and 0.5058,0.6427 and 0.4189,0.6101 and 0.3891,0.5237 and 0.3506,0.4763 and 0.3127,0.3344 and 0.3594,0.3785 and 0.2952,0.2822 and 0.2602,0.9 µM,1.2176,1.045,1.349,1.319,1.348,0.4488,0.3698,"IC50 (eIF1A; eIF1A, from the titration data, read-out: IC50 (eIF1A titration block)): 0.926 µM; RPS10 fluorescence ratio to control (RPS10; 1Ai conc. 32 uM): 0.4065; RPS10 fluorescence ratio to control (RPS10; 1Ai conc. 64 uM): 0.1627; RPS10 fluorescence ratio to control (RPS10; 1Ai conc. 256 uM): 0.3279; IC50 (RPS10; read-out: IC50 (line under RPS10 binding data)): 7.4 µM; IC50 (RPS10; read-out: RPS10 IC50): 7.4 µM; IC50 (RPS10; summary table, fluorescence binding assay, read-out: IC50 concentration (µM), RPS10): 7.4 µM; GFP reporter ratio nsp1/gfp, avg (NSP1): 0.4237; GFP reporter ratio nsp1/gfp, rep 1 (NSP1): 0.4237; gfp signal, mean of duplicate wells (NSP1): 2857; nsp1 signal, mean of duplicate wells (NSP1): 1210.5; ratio (nsp1/gfp) (NSP1): 0.424"
CCOc1cc(C(=O)Nc2ccc(Cl)c(-c3nc4ccccc4[nH]3)c2)cc(OCC)c1OCC [1Ai-5677],0.4981,15 µM,0.8378 and 0.9597,0.7937 and 0.9656,0.9644 and 1.01,1.084 and 0.9877,1.028 and 1.008,0.9744 and 0.9518,1.11 and 0.9262,1.565 and 1.017,1.663 and 1.113,1.623 and 1.122,24.8 µM,1.185,1.207,1.132,1.142,1.154,1.116,1.16,"RPS10 fluorescence ratio to control (RPS10; 1Ai conc. 32 uM): 1.234; RPS10 fluorescence ratio to control (RPS10; 1Ai conc. 64 uM): 1.307; RPS10 fluorescence ratio to control (RPS10; 1Ai conc. 256 uM): 1.29; RPS10 IC50 (RPS10; fluorescence binding): No binding; IC50 concentration (µM), RPS10 (RPS10; summary table, fluorescence binding assay): No binding; GFP reporter ratio nsp1/gfp, avg (NSP1): 0.572; GFP reporter ratio nsp1/gfp, rep 1 (NSP1): 0.572; gfp signal, mean of duplicate wells (NSP1): 1615.5; nsp1 signal, mean of duplicate wells (NSP1): 924; ratio (nsp1/gfp) (NSP1): 0.572"
